Among the data in patent US11230541B2, “Heterocyclic compound” (Takeda Pharmaceutical Company Limited, priority 2017, dated 2022) are inhibition values, retold here.

For this assay, the target named is T1, NMDA receptor composed of four subunits including 2 sets of heterodimers of NR1 and NR2B (Homo sapiens, UniProt Q13224).
T1 construct: host or cells: HEK293 (tetracycline-induced expression)
T1 sequence (Q13224 27-1484, other chains not shown): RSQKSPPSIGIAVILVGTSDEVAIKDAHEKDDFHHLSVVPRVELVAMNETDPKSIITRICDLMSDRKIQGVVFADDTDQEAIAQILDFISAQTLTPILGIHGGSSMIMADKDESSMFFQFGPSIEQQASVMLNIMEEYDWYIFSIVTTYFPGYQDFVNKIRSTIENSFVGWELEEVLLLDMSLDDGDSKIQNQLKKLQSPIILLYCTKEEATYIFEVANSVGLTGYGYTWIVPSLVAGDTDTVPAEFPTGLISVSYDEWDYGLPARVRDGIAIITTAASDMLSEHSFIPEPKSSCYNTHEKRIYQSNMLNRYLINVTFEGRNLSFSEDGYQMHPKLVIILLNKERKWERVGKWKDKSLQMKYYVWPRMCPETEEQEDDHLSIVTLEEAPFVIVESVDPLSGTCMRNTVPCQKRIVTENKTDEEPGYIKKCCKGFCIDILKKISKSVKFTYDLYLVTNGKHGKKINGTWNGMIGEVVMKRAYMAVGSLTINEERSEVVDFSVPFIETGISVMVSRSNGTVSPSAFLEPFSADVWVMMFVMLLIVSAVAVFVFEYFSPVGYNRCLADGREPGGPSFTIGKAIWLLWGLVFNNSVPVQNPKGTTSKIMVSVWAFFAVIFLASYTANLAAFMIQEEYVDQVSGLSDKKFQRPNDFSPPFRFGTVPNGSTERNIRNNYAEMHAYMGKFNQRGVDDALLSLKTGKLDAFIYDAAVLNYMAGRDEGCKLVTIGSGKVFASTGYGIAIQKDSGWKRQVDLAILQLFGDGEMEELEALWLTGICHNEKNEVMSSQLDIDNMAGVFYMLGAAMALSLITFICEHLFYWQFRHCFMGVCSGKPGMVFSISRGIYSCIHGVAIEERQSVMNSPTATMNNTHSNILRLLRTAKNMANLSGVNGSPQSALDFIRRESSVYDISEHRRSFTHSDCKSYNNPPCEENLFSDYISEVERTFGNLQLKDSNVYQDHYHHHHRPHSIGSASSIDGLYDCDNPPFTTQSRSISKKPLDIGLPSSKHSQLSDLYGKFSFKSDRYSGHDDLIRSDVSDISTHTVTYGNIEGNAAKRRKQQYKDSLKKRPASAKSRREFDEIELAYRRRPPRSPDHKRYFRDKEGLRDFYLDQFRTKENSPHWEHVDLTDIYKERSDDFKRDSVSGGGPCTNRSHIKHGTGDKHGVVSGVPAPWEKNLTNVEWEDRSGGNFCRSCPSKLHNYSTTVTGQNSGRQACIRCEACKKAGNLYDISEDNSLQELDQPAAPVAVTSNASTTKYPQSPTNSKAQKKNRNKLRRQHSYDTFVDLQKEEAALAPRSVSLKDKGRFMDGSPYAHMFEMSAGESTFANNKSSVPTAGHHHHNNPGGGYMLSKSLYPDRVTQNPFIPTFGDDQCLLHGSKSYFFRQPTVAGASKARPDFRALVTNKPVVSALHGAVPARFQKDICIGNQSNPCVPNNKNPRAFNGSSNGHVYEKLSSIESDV
Put plainly: NR2B Ca2+ influx assay (FLIPR, Fluo-4) in HEK293 cells expressing human GRIN1 and GRIN2B. Type of assay: cell-based. To be noted: HEK293, 10 μM final compound concentration, glutamic acid/glycine-induced Ca2+ influx, read-out: inhibitory rate (10 μM compound concentration). The source says:
To confirm the “antagonistic action on an NMDA receptor containing the NR2B subunit” of the compound of the present invention, human embryonic kidney cell expressing the “NMDA receptor composed of four subunits including 2 sets of heterodimers of NR1 and NR2B”, specifically HEK293 cell expressing human glutamate ionotropic receptor NMDA type subunit 1 (GRIN1) and human glutamate ionotropic receptor NMDA type subunit 2B (GRIN2B), was used and the activation suppressive effect on the receptors was measured.
As an index of the NMDA receptor activation, intracellular calcium ion (Ca^2+) influx caused by the binding of glycine and glutamic acid with NR1 and NR2B, respectively, was used. HEK293 cells were purchased from ChanTest. The cells were cultured in a DMEM/F-12 (COSMO BIO, 10-092-CM) medium added with 10% FBS′(fetal bovine serum, AusGene), 100 units/mL penicillin, 100 μg/mL streptomycin, 500 μg/mL neomycin, 100 μg/mL Zeocin, 5 μg/mL Blasticidin at 37° C., 5% CO2. The cells were detached from flask with trypsin the day before the assay, suspended in a seeding medium (DMEM (Invitrogen, 31053) added with 10% FBS, 100 units/mL penicillin, 100 μg/mL streptomycin) at 8×10^5 cells/mL, seeded by 25 μL per well in a 384-well plate (Falcon, 356663) at 20000 cells/well, and cultured overnight in an incubator. On the day of the assay, tetracycline (Wako Pure Chemical Industries, Ltd., 209-16561) was diluted with the seeding medium at 2 μg/mL, added at […] to the plate seeded with the cells, and cultured for 2 hr in an incubator. Thereafter, the medium was removed, and the cells were washed with 50 μL/well assay buffer (137 mM NaCl, 4 mM KCl, 1.8 mM CaCl2, 10 mM HEPES (pH 7.2), 10 mM Glucose, 0.1% BSA). Then, a loading buffer (assay buffer added with 2.5 uM Fluo-4AM, 2 mM Amaranth, 1 mM Tartrazine) was added at 25 μL/well, and loading was performed in the incubator for 30 min, and at room temperature for 15 min. A solution (25 μL) of the Example compound diluted with the above-mentioned assay buffer at 30 μM (final concentration 10 μM) was added, and the cells were stood for 15 min at room temperature. Using FLIPR (Molecular Devices), 25 μL of an assay buffer containing 30 μM glutamic acid, 30 μM glycine was added, and the fluorescence signal was measured every 3 seconds for 5 min. The inhibitory activity was calculated as a relative activity value (inhibitory rate) that inhibits 100% of the cumulative value of the fluorescence value of a well added with a buffer free of glutamic acid, glycine, relative to the cumulative value of the fluorescence value of each well.
Consider `COc1ccc(C(=O)NCc2c(C3CC3)ccc3[nH]ncc23)s1` [Example 67, N-((5-cyclopropyl-1H-indazol-4-yl)methyl)-methoxythiophene-2-carboxamide], for which the inhibition at 10 µM was 92%.
In the case of `COc1csc(C(=O)NCc2c(C3CC3)ccc3[nH]ncc23)c1` [Example 68, N-((5-cyclopropyl-1H-indazol-4-yl)methyl)-methoxythiophene-2-carboxamide], the inhibition at 10 µM turned out to be 86%.
Regarding `O=C(NCc1c(C2CC2)ccc2[nH]ncc12)c1csc(Cl)c1` [Example 69, 5-chloro-N-((5-cyclopropyl-1H-indazol-4-yl)methyl)thiophene-3-carboxamide], the inhibition at 10 µM is 93%.
`O=C(NCc1c(C2CC2)ccc2[nH]ncc12)c1cc(Cl)cs1` [Example 70, 4-chloro-N-((5-cyclopropyl-1H-indazol-4-yl)methyl)thiophene-2-carboxamide]: the inhibition at 10 µM is 92%.
Consider `O=C(NCc1c(C2CC2)ccc2[nH]ncc12)c1ccc(Cl)s1` [Example 71, 5-chloro-N-((5-cyclopropyl-1H-indazol-4-yl)methyl)thiophene-2-carboxamide], for which the inhibition at 10 µM is 92%.
The result for `COc1cc(C(=O)NCc2c(C3CC3)ccc3[nH]ncc23)ccc1F` [Example 72, N-((5-cyclopropyl-1H-indazol-4-yl)methyl)-4-fluoro-3-methoxy-benzamide] reads 89%; that for `Cc1cc(C(=O)NCc2c(C3CC3)ccc3[nH]ncc23)ccc1Cl` [Example 73, 4-chloro-N-((5-cyclopropyl-1H-indazol-yl)methyl)-3-methylbenzamide], 94%.
Consider `Cc1ccc(C(=O)NCc2c(C3CC3)ccc3[nH]ncc23)cc1Cl` [Example 74, 3-chloro-N-((5-cyclopropyl-1H-indazol-yl)methyl)-4-methylbenzamide], for which the inhibition at 10 µM was 93%.
Under `Cc1cc(C(=O)NCc2c(C3CC3)ccc3[nH]ncc23)ccc1F` [Example 75, N-((5-cyclopropyl-1H-indazol-4-yl)methyl)-4-fluoro-3-methyl-benzamide] stands 92%; under `Cc1cc(C(=O)NCc2c(C3CC3)ccc3[nH]ncc23)cc(F)c1F` [Example 76, N-((5-cyclopropyl-1H-indazol-4-yl)methyl)-3,4-difluoro-5-methyl-benzamide], 93%.
Under `O=C(NCc1c(C2CC2)ccc2[nH]ncc12)c1ccc(F)c(Cl)c1` [Example 77, 3-chloro-N-((5-cyclopropyl-1H-indazol-4-yl)methyl)-4-fluorobenzamide] stands 92%; under `O=C(NCc1c(C2CC2)ccc2[nH]ncc12)c1ccc(Cl)c(F)c1` [Example 78, 4-chloro-N-((5-cyclopropyl-1H-indazol-yl)methyl)-3-fluorobenzamide], 93%.
Under `O=C(NCc1c(C2CC2)ccc2[nH]ncc12)c1cc(F)c(F)c(F)c1` [Example 79, N-((5-cyclopropyl-1H-indazol-4-yl)methyl)-3,4,5-trifluoro-benzamide] stands 92%; under `COc1ccc(C(=O)NCc2c(C3CC3)ccc3[nH]ncc23)cc1Cl` [Example 80, 3-chloro-N-((5-cyclo-propyl-1H-indazol-4-yl)methyl)-4-methoxybenzamide], 93%.
`COc1cc(C(=O)NCc2c(C3CC3)ccc3[nH]ncc23)ccc1Cl` [Example 81, 4-chloro-N-((5-cyclopropyl-1H-indazol-4-yl)methyl)-3-methoxybenzamide]: the inhibition at 10 µM stood at 82%.
As for `O=C(NCc1c(C2CC2)ccc2[nH]ncc12)c1ccc(C(F)(F)F)s1` [Example 82, N-((5-cyclopropyl-1H-indazol-4-yl)methyl)-5-(trifluoromethyl)-thiophene-2-carboxamide], the inhibition at 10 µM turned out to be 94%.
For the molecule `O=C(NCc1c(C2CC2)ccc2[nH]ncc12)c1cc(Cl)c(Cl)s1` [Example 83, 4,5-dichloro-N-((5-cyclopropyl-1H-indazol-4-yl)methyl)thiophene-2-carboxamide], the inhibition at 10 µM worked out at 93%.
The result for `Cc1ccc(C(=O)NCc2c(C3CC3)ccc3[nH]ncc23)cc1C(F)(F)F` [Example 84, N-((5-cyclopropyl-1H-indazol-4-yl)methyl)-4-methyl-3-(trifluoro-methyl)benzamide] reads 91%; that for `O=C(NCc1c(C2CC2)ccc2[nH]ncc12)c1ccc(F)c(C(F)(F)F)c1` [Example 85, N-((5-cyclopropyl-1H-indazol-4-yl)methyl)-4-fluoro-3-(trifluoromethyl)-benzamide], 93%.
Under `O=C(NCc1c(C2CC2)ccc2[nH]ncc12)c1cc(Cl)c(F)c(Cl)c1` [Example 86, 3,5-dichloro-N-((5-cyclopropyl-1H-indazol-4-yl)methyl)-4-fluorobenzamide] stands 94%; under `O=C(NCc1c(C2CC2)ccc2[nH]ncc12)c1cc(F)c(Cl)c(Cl)c1` [Example 87, 3,4-dichloro-N-((5-cyclopropyl-1H-indazol-4-yl)methyl)-5-fluorobenzamide], 94%.
Under `O=C(NCc1c(C2CC2)ccc2[nH]ncc12)c1ccc(OC(F)(F)F)c(F)c1` [Example 88, N-((5-cyclopropyl-1H-indazol-4-yl)methyl)-3-fluoro-4-(trifluoro-methoxy)benzamide] stands 93%.
As to `O=C(NCc1c(C2CC2)ccc2[nH]ncc12)c1ccc(C(F)(F)F)c(Cl)c1` [Example 89, 3-chloro-N-((5-cyclo-propyl-1H-indazol-4-yl)methyl)-4-(trifluoro-methyl)benzamide], the inhibition at 10 µM was determined as 91%.
For `O=C(NCc1c(C2CC2)ccc2[nH]ncc12)c1cc(F)c(Cl)c(F)c1` [Example 90, 4-chloro-N-((5-cyclo-propyl-1H-indazol-4-yl)methyl)-3,5-difluorobenzamide], the inhibition at 10 µM stood at 94%.
The result for `O=C(NCc1c(C2CC2)ccc2[nH]ncc12)c1cc(F)c(C(F)(F)F)c(F)c1` [Example 91, N-((5-cyclopropyl-1H-indazol-4-yl)methyl)-3,5-difluoro-4-(trifluoro-methyl)benzamide] reads 94%; that for `O=C(NCc1c(C2CC2)ccc2[nH]ncc12)c1ccc(C(F)(F)F)c(F)c1` [Example 92, N-((5-cyclopropyl-1H-indazol-4-yl)methyl)-3-fluoro-4-(trifluoro-methyl)benzamide], 93%.
Under `Cc1ccc(C(=O)NCc2c(C3CC3)ccc3[nH]ncc23)cc1F` [Example 93, N-((5-cyclopropyl-1H-indazol-4-yl)methyl)-3-fluoro-4-methyl-benzamide] stands 94%; under `COc1ccc(C(=O)NCc2c(C3CC3)ccc3[nH]ncc23)cc1F` [Example 94, N-((5-cyclopropyl-1H-indazol-4-yl)methyl)-3-fluoro-4-methoxy-benzamide], 93%.
On to `O=C(NCc1c(C2CC2)ccc2[nH]ncc12)c1cc(F)c(F)c(Cl)c1` [Example 95, 3-chloro-N-((5-cyclopropyl-1H-indazol-4-yl)methyl)-4,5-difluorobenzamide], for which the inhibition at 10 µM was 95%.
Take `COc1ncc(C(=O)NCc2c(C3CC3)ccc3[nH]ncc23)cc1F` [Example 96, N-((5-cyclopropyl-1H-indazol-4-yl)methyl)-fluoro-6-methoxy-nicotinamide]: the inhibition at 10 µM is 93%.
The result for `Cc1c(F)cc(C(=O)NCc2c(C3CC3)ccc3[nH]ncc23)cc1F` [Example 97, N-((5-cyclopropyl-1H-indazol-4-yl)methyl)-3,5-difluoro-4-methylbenzamide] reads 94%; that for `O=C(NCc1c(C2CC2)ccc2[nH]ncc12)c1ccc(C(F)F)cc1` [Example 98, N-((5-cyclopropyl-1H-indazol-4-yl)methyl)-4-(difluoromethyl)-benzamide], 90%.
The result for `Cc1ccc(C(=O)NCc2c(C3CC3)ccc3[nH]ncc23)cc1` [Example 99, N-((5-cyclopropyl-1H-indazol-4-yl)methyl)-methylbenzamide] reads 91%.
With `O=C(NCc1c(C2CC2)ccc2[nH]ncc12)c1ccc(OC(F)F)cc1` [Example 100, N-((5-cyclopropyl-1H-indazol-4-yl)methyl)-4-(difluoromethoxy)-benzamide], the inhibition at 10 µM was 91%.
